According to ChEMBL document CHEMBL1127714, “Vasorelaxant activity of 2-fluoromethylbenzopyran K+ channel openers” (Bioorg Med Chem Lett, 1994):

What was measured:
Rattus norvegicus [1] = species: Rattus norvegicus; test: Intrinsic activity determined in rat aorta; format: functional
Rattus norvegicus [2] = species: Rattus norvegicus; test: Negative logarithm of the molar concentration required to relax rat aorta precontracted with 30 mM KCL by 50% of intrinsic activity; format: functional

Row | EC50 (Rattus norvegicus [2]) [nM] | SMILES | IA (Rattus norvegicus [1]) [%]
1 | 102 | N#Cc1ccc2c(c1)C(N1CCCC1=O)=CC(CF)(CF)O2 | 74.4
2 | 12 | O=c1ccccn1[C@@H]1c2cc(C(F)(F)C(F)(F)F)ccc2OC(CF)(CF)[C@H]1O | 82.8
3 | 28.8 | O=c1ccccn1[C@@H]1c2cc([N+](=O)[O-])ccc2OC(CF)(CF)[C@H]1O | 74.5
4 | 148 | N#Cc1ccc2c(c1)[C@@H](n1ccccc1=O)[C@H](O)C(CF)(CF)O2 | 78.7
5 | 2.45 | O=c1ccccn1C1=CC(CF)(CF)Oc2ccc([N+](=O)[O-])cc21 | 64.9
6 | 24.5 | N#Cc1ccc2c(c1)C(n1ccccc1=O)=CC(CF)(CF)O2 | 75.7
7 | 2.95 | O=c1ccccn1C1=CC(CF)(CF)Oc2ccc(C(F)(F)C(F)(F)F)cc21 | 69.2
8 | 85.1 | N#Cc1ccc2c(c1)[C@@H](N1CCCC1=O)[C@H](O)C(CF)(CF)O2 | 78
9 | 30.2 | CC1(C)C=C(n2ccccc2=O)c2cc(C#N)ccc2O1 [BIMAKALIM] | 70.2
10 | 8.91 | N#Cc1ccc2c(c1)[C@@H](N1CCCCC1=O)[C@H](O)C(CF)(CF)O2 | 74.9
11 | 162 | N#Cc1ccc2c(c1)C(N1CCCCC1=O)=CC(CF)(CF)O2 | 68.7

The remaining lines, values behind:

Row | SMILES | EC50 (Rattus norvegicus [2]) [nM] | IA (Rattus norvegicus [1]) [%]
12 | CC1(C)Oc2ccc(C#N)cc2[C@@H](N2CCCC2=O)[C@@H]1O [CROMAKALIM] | – | 74.7
13 | O=C1CCCCN1[C@@H]1c2cc(C(F)(F)C(F)(F)F)ccc2OC(CF)(CF)[C@H]1O | 3.89 | 65.6
14 | O=C1CCCCN1C1=CC(CF)(CF)Oc2ccc([N+](=O)[O-])cc21 | 17.4 | 69.7
15 | O=C1CCCN1C1=CC(CF)(CF)Oc2ccc([N+](=O)[O-])cc21 | 7.76 | 74.3
16 | O=C1CCCN1C1=CC(CF)(CF)Oc2ccc(C(F)(F)C(F)(F)F)cc21 | 1.51 | 68.6
17 | O=C1CCCCN1[C@@H]1c2cc([N+](=O)[O-])ccc2OC(CF)(CF)[C@H]1O | 2.75 | 63.3
18 | CC(N/C(=N\C#N)Nc1ccncc1)C(C)(C)C (configuration not stated) [PINACIDIL ANHYDROUS] | – | 91.9
19 | O=C1CCCN1[C@@H]1c2cc([N+](=O)[O-])ccc2OC(CF)(CF)[C@H]1O | 24 | 72.7
20 | O=C1CCCCN1C1=CC(CF)(CF)Oc2ccc(C(F)(F)C(F)(F)F)cc21 | 5.62 | 72
21 | [O-][n+]1ccccc1C1=CC(CF)(CF)Oc2ccc(C(F)(F)C(F)(F)F)cc21 | 1.7 | 68.2
22 | O=C1CCCN1[C@@H]1c2cc(C(F)(F)C(F)(F)F)ccc2OC(CF)(CF)[C@H]1O | 6.31 | 77.6
